In ChEMBL document CHEMBL3885861, “Open TG-GATES”:

Organism: Rattus norvegicus
Assay: Open TG-GATES - Regimen: Daily Repeat
Format: toxicity, organism-based, Sprague-Dawley
Parameters: regimen Daily Repeat, gender Male, age 6 weeks
Conditions: in vivo, po, route gavage; for Eos / Hb / Ht / Lym / MCH / MCHC / MCV / Mono / Neu / Plat / RBC / Ret / WBC / APTT / Bas / PT: tissue Blood; for KIDNEY_L / KIDNEY_R / KIDNEY_TOTAL: tissue Kidney; for LIVER: tissue Liver; for ALT / AST / BUN / CRE / Ca / DBIL / GLC / IP / K / LDH / Na / PL / RALB / TBIL / TC / TG / TP / gamma-GTP / ALP: tissue Plasma
[1] = 300 mg/kg, 72 h, dose level Middle, time 3 day
[2] = 300 mg/kg, […], dose level Middle, time 7 day
[3] = 300 mg/kg, […], dose level Middle, time 14 day
[4] = 300 mg/kg, […], dose level Middle, time 28 day
[5] = 1000 mg/kg, 72 h, dose level High, time 3 day
[6] = 1000 mg/kg, […], dose level High, time 7 day
[7] = 1000 mg/kg, […], dose level High, time 14 day
[8] = 1000 mg/kg, […], dose level High, time 28 day

SMILES: C[C@H](CS)C(=O)N1CCC[C@H]1C(=O)O [CAPTOPRIL]
- Eos [1]: 1.2%
- Hb [1]: 13.3 g/dL
- Ht [1]: 40.2%
- Lym [1]: 79.4%
- MCH [1]: 21.4 pg
- MCHC [1]: 33.1%
- MCV [1]: 64.5 fL
- Mono [1]: 4.2%
- Neu [1]: 15.2%
- Plat [1]: 111.4 x10_4/uL
- RBC [1]: 623.2 x10_4/ul
- Ret [1]: 7.7%
- WBC [1]: 92.7 x10_2/uL
- KIDNEY_L [1]: 1.1 g
- KIDNEY_R [1]: 1.1 g
- KIDNEY_TOTAL [1]: 2.2 g
- LIVER [1]: 12.3 g
- ALT [1]: 40.6 IU/L
- AST [1]: 61 IU/L
- BUN [1]: 17.8 mg/dL
- CRE [1]: 0.5 mg/dL
- Ca [1]: 11.5 mg/dL
- DBIL [1]: 0.022 mg/dL
- GLC [1]: 195.4 mg/dL
- IP [1]: 8.8 mg/dL
- K [1]: 5.1 meq/L
- LDH [1]: 89 IU/L
- Na [1]: 136 meq/L
- PL [1]: 143.4 mg/dL
- RALB [1]: 4.2 g/dL
- TBIL [1]: 0.4 mg/dL
- TC [1]: 76 mg/dL
- TG [1]: 73.8 mg/dL
- TP [1]: 6.1 g/dL
- gamma-GTP [1]: 0.8 IU/L
- TERMINAL_BW [2]: 259.5 g
- TERMINAL_BW [3]: 288.5 g
- TERMINAL_BW [4]: 322 g
- APTT [2]: 16.4 s
- Bas [2]: 0%
- Eos [2]: 1.2%
- Hb [2]: 13.3 g/dL
- Ht [2]: 39.7%
- Lym [2]: 85.2%
- MCH [2]: 21.2 pg
- MCHC [2]: 33.4%
- MCV [2]: 63.6 fL
- Mono [2]: 4.6%
- Neu [2]: 9.2%
- Plat [2]: 127.2 x10_4/uL
- RBC [2]: 625.8 x10_4/ul
- Ret [2]: 4.7%
- WBC [2]: 127.6 x10_2/uL
- APTT [3]: 16.6 s
- Bas [3]: 0%
- Eos [3]: 1%
- Hb [3]: 13 g/dL
- Ht [3]: 38.6%
- Lym [3]: 83.2%
- MCH [3]: 20.5 pg
- MCHC [3]: 33.7%
- MCV [3]: 60.7 fL
- Mono [3]: 4%
- Neu [3]: 11.4%
- PT [3]: 11.7 s
- Plat [3]: 128.4 x10_4/uL
- RBC [3]: 636.4 x10_4/ul
- Ret [3]: 4.4%
- WBC [3]: 183.2 x10_2/uL
- APTT [4]: 15.5 s
- Bas [4]: 0%
- Eos [4]: 1%
- Hb [4]: 14 g/dL
- Ht [4]: 41.6%
- Lym [4]: 82.2%
- MCH [4]: 19.3 pg
- MCHC [4]: 33.7%
- MCV [4]: 57.4 fL
- Mono [4]: 3.6%
- Neu [4]: 13.6%
- PT [4]: 11.9 s
- Plat [4]: 112.2 x10_4/uL
- RBC [4]: 724.6 x10_4/ul
- Ret [4]: 2.9%
- WBC [4]: 165.2 x10_2/uL
- KIDNEY_L [2]: 1.2 g
- KIDNEY_R [2]: 1.2 g
- KIDNEY_TOTAL [2]: 2.3 g
- KIDNEY_L [3]: 1.2 g
- KIDNEY_R [3]: 1.3 g
- KIDNEY_TOTAL [3]: 2.5 g
- KIDNEY_L [4]: 1.3 g
- KIDNEY_R [4]: 1.4 g
- KIDNEY_TOTAL [4]: 2.7 g
- LIVER [2]: 11.7 g
- LIVER [3]: 12.4 g
- LIVER [4]: 12.4 g
- ALT [2]: 32.8 IU/L
- AST [2]: 63.2 IU/L
- BUN [2]: 20.6 mg/dL
- CRE [2]: 0.6 mg/dL
- Ca [2]: 11 mg/dL
- DBIL [2]: 0.006 mg/dL
- GLC [2]: 192 mg/dL
- IP [2]: 8 mg/dL
- K [2]: 4.8 meq/L
- LDH [2]: 109.6 IU/L
- Na [2]: 138.2 meq/L
- PL [2]: 132 mg/dL
- RALB [2]: 3.8 g/dL
- TBIL [2]: 0.3 mg/dL
- TC [2]: 72.8 mg/dL
- TG [2]: 73.4 mg/dL
- TP [2]: 5.8 g/dL
- gamma-GTP [2]: 2.2 IU/L
- ALP [3]: 824.2 IU/L
- ALT [3]: 40.2 IU/L
- AST [3]: 66.6 IU/L
- BUN [3]: 24.4 mg/dL
- CRE [3]: 0.6 mg/dL
- DBIL [3]: 0.012 mg/dL
- GLC [3]: 203.6 mg/dL
- IP [3]: 7.8 mg/dL
- K [3]: 4.6 meq/L
- LDH [3]: 86.6 IU/L
- Na [3]: 135.2 meq/L
- PL [3]: 151 mg/dL
- RALB [3]: 3.8 g/dL
- TBIL [3]: 0.3 mg/dL
- TC [3]: 81.4 mg/dL
- TG [3]: 67 mg/dL
- TP [3]: 5.9 g/dL
- gamma-GTP [3]: 1.4 IU/L
- ALP [4]: 617.4 IU/L
- ALT [4]: 35.4 IU/L
- AST [4]: 65.8 IU/L
- BUN [4]: 30.8 mg/dL
- CRE [4]: 0.6 mg/dL
- DBIL [4]: 0.024 mg/dL
- GLC [4]: 191.2 mg/dL
- IP [4]: 7.4 mg/dL
- K [4]: 4.6 meq/L
- Na [4]: 136.8 meq/L
- PL [4]: 156.6 mg/dL
- RALB [4]: 4 g/dL
- TBIL [4]: 0.4 mg/dL
- TC [4]: 84.8 mg/dL
- TG [4]: 79 mg/dL
- TP [4]: 6.1 g/dL
- gamma-GTP [4]: 0.4 IU/L
- TERMINAL_BW [5]: 233.8 g
- APTT [5]: 16.1 s
- Bas [5]: 0%
- Eos [5]: 1.2%
- Hb [5]: 13.3 g/dL
- Ht [5]: 39.9%
- Lym [5]: 80.6%
- MCH [5]: 21.3 pg
- MCHC [5]: 33.2%
- MCV [5]: 64 fL
- Mono [5]: 5.2%
- Neu [5]: 13.4%
- PT [5]: 11.1 s
- Plat [5]: 122.3 x10_4/uL
- RBC [5]: 623.8 x10_4/ul
- Ret [5]: 6.2%
- KIDNEY_L [5]: 1.1 g
- KIDNEY_R [5]: 1.1 g
- KIDNEY_TOTAL [5]: 2.2 g
- LIVER [5]: 11 g
- ALP [5]: 971.8 IU/L
- ALT [5]: 40.6 IU/L
- AST [5]: 63 IU/L
- BUN [5]: 22.6 mg/dL
- CRE [5]: 0.5 mg/dL
- Ca [5]: 11.2 mg/dL
- DBIL [5]: 0.016 mg/dL
- GLC [5]: 193.4 mg/dL
- IP [5]: 8.2 mg/dL
- K [5]: 5 meq/L
- LDH [5]: 90.4 IU/L
- Na [5]: 135.2 meq/L
- PL [5]: 148.8 mg/dL
- RALB [5]: 3.9 g/dL
- TBIL [5]: 0.4 mg/dL
- TC [5]: 82.4 mg/dL
- TG [5]: 93.4 mg/dL
- TP [5]: 5.8 g/dL
- gamma-GTP [5]: 1.4 IU/L
- TERMINAL_BW [6]: 249.2 g
- TERMINAL_BW [7]: 310.3 g
- TERMINAL_BW [8]: 359.7 g
- APTT [6]: 16.3 s
- Bas [6]: 0%
- Eos [6]: 1.2%
- Hb [6]: 12.7 g/dL
- Ht [6]: 37.9%
- Lym [6]: 82.4%
- MCH [6]: 21.3 pg
- MCHC [6]: 33.5%
- MCV [6]: 63.6 fL
- Mono [6]: 4.6%
- Neu [6]: 11.8%
- Plat [6]: 123.8 x10_4/uL
- RBC [6]: 595.6 x10_4/ul
- Ret [6]: 4%
- WBC [6]: 141 x10_2/uL
- APTT [7]: 16.7 s
- Bas [7]: 0%
- Eos [7]: 1.2%
- Hb [7]: 12.7 g/dL
- Ht [7]: 37.6%
- Lym [7]: 81.8%
- MCH [7]: 20.6 pg
- MCHC [7]: 33.6%
- MCV [7]: 61.4 fL
- Mono [7]: 4.6%
- Neu [7]: 12.4%
- PT [7]: 11.5 s
- Plat [7]: 122.1 x10_4/uL
- RBC [7]: 614 x10_4/ul
- Ret [7]: 3.1%
- WBC [7]: 160.2 x10_2/uL
- APTT [8]: 16.4 s
- Bas [8]: 0%
- Eos [8]: 1.2%
- Hb [8]: 13.4 g/dL
- Ht [8]: 40.3%
- Lym [8]: 90.2%
- MCH [8]: 20 pg
- MCHC [8]: 33.2%
- MCV [8]: 60.1 fL
- Mono [8]: 2.8%
- Neu [8]: 6%
- PT [8]: 11.9 s
- Plat [8]: 96.2 x10_4/uL
- RBC [8]: 671.8 x10_4/ul
- Ret [8]: 3.7%
- WBC [8]: 236.5 x10_2/uL
- KIDNEY_L [6]: 1.2 g
- KIDNEY_R [6]: 1.3 g
- KIDNEY_TOTAL [6]: 2.5 g
- KIDNEY_L [7]: 1.3 g
- KIDNEY_R [7]: 1.4 g
- KIDNEY_TOTAL [7]: 2.7 g
- KIDNEY_L [8]: 1.5 g
- KIDNEY_R [8]: 1.6 g
- KIDNEY_TOTAL [8]: 3.1 g
- LIVER [7]: 13.5 g
- LIVER [8]: 15.1 g
- ALP [6]: 755.6 IU/L
- ALT [6]: 32.2 IU/L
- AST [6]: 53.8 IU/L
- BUN [6]: 46.4 mg/dL
- CRE [6]: 0.6 mg/dL
- DBIL [6]: 0.012 mg/dL
- GLC [6]: 192.8 mg/dL
- IP [6]: 7.7 mg/dL
- K [6]: 5.2 meq/L
- LDH [6]: 78.6 IU/L
- Na [6]: 136.8 meq/L
- PL [6]: 141.4 mg/dL
- RALB [6]: 3.5 g/dL
- TBIL [6]: 0.4 mg/dL
- TC [6]: 88.2 mg/dL
- TG [6]: 52.6 mg/dL
- TP [6]: 5.6 g/dL
- gamma-GTP [6]: 2 IU/L
- ALP [7]: 859.4 IU/L
- ALT [7]: 35.2 IU/L
- AST [7]: 58.8 IU/L
- BUN [7]: 38.8 mg/dL
- CRE [7]: 0.6 mg/dL
- DBIL [7]: 0.008 mg/dL
- GLC [7]: 191.8 mg/dL
- IP [7]: 7.8 mg/dL
- K [7]: 5 meq/L
- LDH [7]: 78.2 IU/L
- Na [7]: 133.8 meq/L
- PL [7]: 151.8 mg/dL
- RALB [7]: 3.7 g/dL
- TBIL [7]: 0.4 mg/dL
- TC [7]: 80.6 mg/dL
- TG [7]: 85.6 mg/dL
- TP [7]: 5.7 g/dL
- gamma-GTP [7]: 1.2 IU/L
- ALP [8]: 768 IU/L
- ALT [8]: 45 IU/L
- AST [8]: 71.5 IU/L
- BUN [8]: 32 mg/dL
- CRE [8]: 0.6 mg/dL
- DBIL [8]: 0.015 mg/dL
- GLC [8]: 207 mg/dL
- IP [8]: 7.7 mg/dL
- K [8]: 4.6 meq/L
- LDH [8]: 110.2 IU/L
- Na [8]: 135.8 meq/L
- PL [8]: 127.8 mg/dL
- RALB [8]: 3.6 g/dL
- TBIL [8]: 0.5 mg/dL
- TC [8]: 69 mg/dL
- TG [8]: 72.8 mg/dL
- TP [8]: 5.7 g/dL
- gamma-GTP [8]: 0.8 IU/L
